Legend:
CES2 = molecular target: T1, CES2 (Homo sapiens, UniProt O00748); test: Incubation with human recombinant CES2; type: in vitro ADME; conditions: CES2, 60 min at 37 °C; ETN101 10 μM or M1 1 μM
T1 construct: purchased Corning Life Sciences (Woburn, MA, USA)
T1 sequence (O00748 27-559): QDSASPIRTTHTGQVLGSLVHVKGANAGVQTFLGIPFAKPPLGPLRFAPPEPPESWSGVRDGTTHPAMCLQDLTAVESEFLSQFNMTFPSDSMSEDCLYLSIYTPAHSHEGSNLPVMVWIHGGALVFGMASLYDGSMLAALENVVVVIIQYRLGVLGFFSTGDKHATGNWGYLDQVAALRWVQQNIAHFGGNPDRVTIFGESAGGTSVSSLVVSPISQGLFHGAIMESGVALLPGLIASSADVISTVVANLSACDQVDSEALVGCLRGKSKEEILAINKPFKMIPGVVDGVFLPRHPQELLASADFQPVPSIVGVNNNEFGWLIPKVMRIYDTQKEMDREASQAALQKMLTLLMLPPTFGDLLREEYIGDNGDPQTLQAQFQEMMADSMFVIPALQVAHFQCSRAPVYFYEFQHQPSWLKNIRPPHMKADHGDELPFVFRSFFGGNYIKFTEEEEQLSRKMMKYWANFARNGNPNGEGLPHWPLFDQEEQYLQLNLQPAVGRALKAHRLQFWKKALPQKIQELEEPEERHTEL
Description: To screen for CES enzymes responsible for the hydrolysis of ETN101 or M1, 50 μL of reaction mixtures containing human cDNA-expressed CES enzymes (CES1b, CES1c, and CES2) at the concentration of 1 mg/mL, 10 μM ETN101, or 1 μM M1 in 0.1 M potassium phosphate buffer were incubated at 37 °C for 0 min or 60 min in triplicate. The reactions were quenched by adding 50 μL of ice-cold acetonitrile containing the internal standard (camptothecin, 10 μg/mL). Following centrifugation at 13,000 rpm for 5 min, a 2 μL aliquot of the supernatant was injected into the LC-MS/MS system. The reliability of the analysis was confirmed by incorporating three different levels of quality control samples at the beginning and end of each analytical batch.
(§1) For enzyme characterization, an Agilent 6460 triple quadrupole mass spectrometer coupled with a 1260 HPLC system (Agilent Technologies, Santa Clara, CA, USA) and a Kinetex Halo® C18 column (2.7 μm, 2.1 × 50 mm, Advanced Material Technology, Wilmington, DE, USA) were used for chromatographic separation. The mobile phases comprised 0.1% (v/v) formic acid in water (mobile phase A) and 0.1% formic acid (v/v) in acetonitrile (mobile phase B). […] ETN101, M1, and M2 were detected via MRM using ESI in the positive mode. […]

CYP2C8 = molecular target: T2, CYP2C8 (Homo sapiens, UniProt P10632); test: Incubation with human cDNA-expressed CYP2C8; type: in vitro ADME; conditions: CYP2C8, 30 min at 37 °C with NADPH; ETN101 10 μM or M1 1 μM
T2 construct: purchased Cypex Ltd. (Dundee, UK)
T2 sequence (P10632 1-490): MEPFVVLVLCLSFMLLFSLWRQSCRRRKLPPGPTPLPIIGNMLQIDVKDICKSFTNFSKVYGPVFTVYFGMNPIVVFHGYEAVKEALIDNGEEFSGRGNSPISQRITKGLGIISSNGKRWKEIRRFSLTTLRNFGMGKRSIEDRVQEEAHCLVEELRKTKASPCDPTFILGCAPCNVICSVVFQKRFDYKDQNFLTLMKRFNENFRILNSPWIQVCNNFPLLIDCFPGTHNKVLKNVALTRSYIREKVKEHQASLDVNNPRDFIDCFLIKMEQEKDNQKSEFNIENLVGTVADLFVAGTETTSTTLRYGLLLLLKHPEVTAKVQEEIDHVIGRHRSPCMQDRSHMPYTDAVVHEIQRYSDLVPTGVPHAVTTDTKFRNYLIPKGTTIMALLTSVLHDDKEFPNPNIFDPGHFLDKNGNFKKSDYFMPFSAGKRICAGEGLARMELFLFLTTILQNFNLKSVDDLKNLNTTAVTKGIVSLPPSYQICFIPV
Description: ETN101 or M1 was incubated with nine human cDNA-expressed CYP enzymes (1A2, 2A6, 2B6, 2C8, 2C9, 2C19, 2D6, 2E1, and 3A4) to identify the CYPs involved in the metabolism of ETN101. Based on the preliminary study, the incubation conditions were determined as follows: Briefly, reaction mixtures of 50 μL containing ETN101 (final concentration: 10 μM) or M1 (final concentration: 1 μM), and CYPs (final amount: 5 pmol for CYP1A2, 2A6, 2C8, 2C9, 2C19, 2D6, and 3A4; 10 pmol for CYP2B6 and 2E1) were prepared in 0.1 M potassium phosphate buffer. The reaction was initiated by adding 50 μL of NADPH- regenerating system; the mixtures were incubated for 0 min or 30 min at 37 °C in triplicate. Reactions were terminated by the addition of 100 μL of ice-cold acetonitrile containing the IS (camptothecin, 200 ng/mL). Samples were centrifuged at 13,000 rpm for 5 min at 4 °C. An aliquot of 2 μL supernatant was injected in LC–MS/MS system.
as §1, with “separation.” for “separation. The mobile phases comprised 0.1% (v/v) formic acid in water (mobile phase A) and 0.1% formic acid (v/v) in acetonitrile (mobile phase B).”

Row | Compound | Percentage remaining (CES2) | Percentage remaining (CYP2C8)
1 | NCC(N)C(=O)Nc1ccc(-c2nc3ccccc3s2)cc1 (stereo not shown) [ETN101, 2,3-diamino-N-(4-(benzo[d]thiazol-2-yl)phenyl)propanamide] | 113.4% | 105.0%
2 | Nc1ccc(-c2nc3ccccc3s2)cc1 [M1, 2-(4-aminophenyl)benzothiazole] | 91.7% | 86.6%
